Laboratory results from patent US20140045809A1, “CORROLES FOR NEUROPROTECTION AND NEURORESCUE” (priority 2008, published 2014).
Entries after “also recorded” stand apart in the source; their conditions may differ.

Assays:
[1] = In-vivo fluorescence imaging of corrole in nude mice (IVIS 200); conditions: 19 mg/kg i.p., 30 min after injection
Method: For obtaining information about in-vivo localization and distribution of the various corroles that have sulfonic acid head groups, in-vivo imaging of corroles in whole animals was performed. Of particular interest was to examine whether the leading corrole compounds unlike most porphyrins are able to cross the blood brain barrier (BBB).
The in vivo imaging experiments were performed as follows. Nude mice received i.p. injections of the fluorescent gallium(III) corrole 1C-Ga and were examined by IVIS 200 imaging system [Xenogen].

RIN-m cells = experiment: Cellular uptake of fluorescent corrole, fluorescence microscopy, RIN-m cells; format: cell-based; conditions: 20 μM, half an hour at 37° C.
From the text: (§1) For testing cellular membrane penetration, as well as uptake and accumulation of corroles in the cells, we took advantage of the fluorescence property of an appropriate corrole. For this purpose we used a fluorescent corrole complex (1C-Ga) that is structurally identical to the catalytic compounds utilized in the cytoprotection/cytorescue experiments, except that the chelated metal is gallium(III) rather than iron(III) in 1C-Fe or manganese(III) in 1C-Mn. The results are shown in FIGS. 21A-D for RIN-m (insulinoma) cell line and FIGS. 22A-D for SH-SY5Y (neuroblastoma) cell line.
(§2) To visualize intracellular corrole we used fluorescence microscopy. Neuroblastoma SH-SY5Y cells and insulinoma RIN-m cells were plated on coverslips. At 24 h after plating, corrole 1C-Ga was added directly to the cell media and incubated for half an hour at 37° C. The cells were then aspirated from the media and washed with phosphate buffer to eliminate background signal due to extra cellular corrole. Fixation with formaldehyde was performed. Coverslips with mounting medium (with DAPI) were directly placed on slides and viewed by fluorescence microscopy; the results are shown in FIGS. 21, 22.

SH-SY5Y cells = experiment: Cellular uptake of fluorescent corrole, fluorescence microscopy, SH-SY5Y cells; format: cell-based, human; conditions: 20 μM, half an hour at 37° C.
From the text: as §1, §2

Question: Which “BBB penetration / accumulation in brain area” value [1] does the source give for “2,17-bis(sulfonato)-5,10,15-tris(pentafluorophenyl)-corrolato galium(III) [1C-Ga]” here?
Answer: possible BBB penetration and accumulation of the corrole complex in brain area; also recorded: indicative of the crossing of the blood brain barrier (BBB)

Question: And the “cellular uptake and accumulation” value (RIN-m cells)?
Answer: accumulation inside the cells

Question: What about the “cellular uptake and accumulation” value (SH-SY5Y cells) of the same substance?
Answer: accumulation inside the cells
